Article PMC8081376 (Mutagenesis, 2020)

Legend:
[1] = system: mammalian cells (V79, CHO, CHL, HuLy, TK6, HepG2); conditions: cited from earlier work
[2] = system: bacterial reverse mutation test (Ames test) strains; conditions: cited from earlier work
[3] = system: Phenion®FT Skin Models (keratinocytes and fibroblasts); conditions: application of the dye to the skin; ref [95]; cited from earlier work
[4] = system: mammalian cells (CHL, V79, CHO, HuLy); conditions: cited from earlier work
rats and mice = conditions: rodent studies; topical for sodium xylene sulfonate; ref [65], [72], [82], [85]; cited from earlier work
[5] = system: bone marrow, blood, liver, skin; conditions: cited from earlier work
[6] = system: PRH, HepG2, CHO, TK6, CHL, MA-10 cells; conditions: TK6 cell line; ref [73]; cited from earlier work
[7] = system: Phenion®FT Skin Models (keratinocytes and fibroblasts)

SMILES	Standard in vitro micronucleus test [1]	Ames test [2]	RS Comet assay outcome in SCCS opinion [3]	In vitro chromosomal aberration studies [4]	Dose producing signs of strong cytotoxicity that limited the top dose (Phenion®FT Skin Models)	Carcinogenicity (rats and mice)	In vivo micronucleus test in mice [5]	In vitro comet assay [6]	Call of statistical prediction models 1 and 2 [7]	Effect on % tail DNA / DNA migration in APC experiment [7]	Effect on % tail DNA / DNA migration in standard experiment [7]	Expert call of the performing laboratory in the coded phase [7]	RS Comet assay overall classification [7]
C[N+](C)(C)c1ccc2ccc(O)c(N=Nc3ccc(N)c([N+](=O)[O-])c3)c2c1.[Cl-] [Basic Brown 17]	negative findings	positive findings	lack of DNA damaging properties	–	–	–	–	–	–	–	–	–	–
O=CC=O [Glyoxal]	–	–	–	clear positive results	25 µg/cm^2	non-carcinogenic	negative results	positive response	positive	statistically significant increase in DNA migration was observed in keratinocytes at the highest dose tested	DNA migration was not increased in either cell type	negative	negative
